Reference: article PMC3892729 (ACS Medicinal Chemistry Letters, 2013)
Entries after “also recorded” stand apart in the source; their conditions may differ.

Tests used:
human β2 adrenoceptor [1] = biological target: T1, human β2 adrenoceptor (Homo sapiens, UniProt P07550); assay: SPR binding to captured β2 adrenoceptor, DDM detergent; conditions: read-out: SPR ka
human β2 adrenoceptor [2] = biological target: T1, human β2 adrenoceptor; assay: SPR binding to captured β2 adrenoceptor, MNG detergent; conditions: for loss in activity / reduction of affinity versus parent fragment: SPR KD, MNG, I and J versus A, L versus F

T1 sequence (P07550 whole entry, the tested form may be a part): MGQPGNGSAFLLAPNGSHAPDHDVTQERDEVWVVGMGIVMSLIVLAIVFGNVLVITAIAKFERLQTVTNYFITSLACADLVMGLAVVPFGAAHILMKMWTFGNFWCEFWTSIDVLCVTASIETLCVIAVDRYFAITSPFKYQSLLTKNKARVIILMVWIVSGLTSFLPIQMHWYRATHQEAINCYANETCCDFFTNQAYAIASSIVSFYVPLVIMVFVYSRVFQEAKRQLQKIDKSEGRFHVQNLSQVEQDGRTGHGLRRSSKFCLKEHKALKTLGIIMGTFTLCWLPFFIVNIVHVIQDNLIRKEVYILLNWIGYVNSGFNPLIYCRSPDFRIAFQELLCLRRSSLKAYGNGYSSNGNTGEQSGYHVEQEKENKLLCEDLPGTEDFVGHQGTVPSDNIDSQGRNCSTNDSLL

Structure (SMILES)	loss in activity / reduction of affinity versus parent fragment (human β2 adrenoceptor [2]) [fold]	other results
CC(Cc1ccc(O)cc1)NCC(O)c1cc(O)cc(O)c1 (centres unmarked) [fenoterol]		kon (human β2 adrenoceptor [1]): 545000 M⁻¹ s⁻¹
c1cc(N2CCNCC2)ccn1 [L]	400	
Cc1ccc2nc(C(F)(F)F)cc(N3CCC(F)(F)CC3)c2c1 [J]	2000	
Cc1ccc2nc(C(F)(F)F)cc(N3CCOCC3)c2c1 [K]		KD (result in words) (human β2 adrenoceptor [2]; MNG detergent): ablation of activity; also recorded: no binding
Cc1ccc2nc(C(F)(F)F)cc(N3CCN(C)CC3)c2c1 [I]	50	
